Source: the NIST ThermoML archive (doi:10.1016/j.jct.2009.05.009)
Numbers after ± are expanded uncertainties.

Assay: xn = mol fraction of the nth substance listed
Conditions: 101.3 kPa, Liquid, Vibrating tube method

CCCC[N+]1(C)CCCC1.O=S(=O)([N-]S(=O)(=O)C(F)(F)F)C(F)(F)F + O
mass density [kg/m3]
Conditions | 298.21 K | 323.21 K
x2 = 0 | 1395.3 ± 2.6 | 1373.6 ± 2.5
x2 = 0.0298 | – | 1372.5 ± 2.5
x2 = 0.0435 | 1394 ± 2.5 | –
x2 = 0.0654 | 1393.2 ± 2.5 | –
x2 = 0.0673 | – | 1371.1 ± 2.5
x2 = 0.086 | 1392.3 ± 2.5 | –
x2 = 0.0913 | 1392.1 ± 2.5 | –
x2 = 0.1012 | – | 1369.9 ± 2.4
x2 = 0.1262 | 1390.7 ± 2.4 | –
x2 = 0.1396 | 1390.1 ± 2.4 | –
x2 = 0.1406 | – | 1368.3 ± 2.4
x2 = 0.1909 | 1388.1 ± 2.3 | –
x2 = 0.2033 | – | 1365.3 ± 2.3
x2 = 0.2228 | 1387.1 ± 2.3 | –

CCCC[n+]1ccn(C)c1.O=S(=O)([N-]S(=O)(=O)C(F)(F)F)C(F)(F)F + O
mass density [kg/m3]
Conditions | 298.2 K | 323.21 K
x2 = 0 | 1437.1 ± 2.6 | 1413.8 ± 2.6
x2 = 0.0308 | 1435.7 ± 2.6 | –
x2 = 0.0482 | – | 1411.8 ± 2.5
x2 = 0.0753 | 1434 ± 2.5 | –
x2 = 0.0816 | – | 1410.5 ± 2.5
x2 = 0.119 | – | 1408.8 ± 2.4
x2 = 0.1194 | 1432.2 ± 2.5 | –
x2 = 0.1597 | – | 1407.1 ± 2.4
x2 = 0.1731 | 1430 ± 2.4 | –
x2 = 0.2141 | – | 1404.5 ± 2.3
x2 = 0.2391 | 1426.7 ± 2.3 | –
x2 = 0.2583 | – | 1402 ± 2.3

CCn1cc[n+](C)c1.O=S(=O)([N-]S(=O)(=O)C(F)(F)F)C(F)(F)F + O
mass density [kg/m3]
Conditions | 298.19 K | 323.17 K
x2 = 0 | 1519.3 ± 2.8 | 1494.7 ± 2.7
x2 = 0.0209 | 1518.3 ± 2.8 | –
x2 = 0.0353 | – | 1493.1 ± 2.7
x2 = 0.0499 | 1516.9 ± 2.7 | –
x2 = 0.0581 | – | 1492 ± 2.7
x2 = 0.0631 | 1516.2 ± 2.7 | –
x2 = 0.0834 | – | 1490.6 ± 2.6
x2 = 0.1164 | – | 1488.7 ± 2.6
x2 = 0.1205 | 1513 ± 2.6 | –
x2 = 0.1608 | 1510.7 ± 2.5 | –
x2 = 0.1611 | – | 1486.2 ± 2.5
x2 = 0.2032 | 1508.1 ± 2.5 | –
x2 = 0.2221 | – | 1482.4 ± 2.4
x2 = 0.3025 | 1501.3 ± 2.3 | –

CCCCn1cc[n+](C)c1.F[P-](F)(F)(F)(F)F [1-butyl-3-methylimidazolium hexafluorophosphate] + O
mass density [kg/m3]
Conditions | x2 = 0 | x2 = 0.0431 | x2 = 0.0982 | x2 = 0.1222 | x2 = 0.1566 | x2 = 0.1873 | x2 = 0.2548 | x2 = 0.2971
298.15 K | 1368.3 ± 2 | 1366.5 ± 2.1 | 1363.5 ± 2.1 | 1362.1 ± 2.1 | 1360.1 ± 2.1 | 1358.5 ± 2.1 | 1355.5 ± 2 | 1354.1 ± 2
323.15 K | 1347.7 ± 2 | 1345.6 ± 2.1 | 1342.2 ± 2.1 | 1340.6 ± 2.1 | 1338.5 ± 2.1 | 1336.4 ± 2.1 | 1332.3 ± 2.1 | 1329.9 ± 2.1

CCCCn1cc[n+](C)c1.F[B-](F)(F)F [1-butyl-3-methylimidazolium tetrafluoroborate] + O
mass density [kg/m3]
Conditions | x2 = 0 | x2 = 0.0895 | x2 = 0.195 | x2 = 0.308 | x2 = 0.4996 | x2 = 0.75 | x2 = 0.899
298.15 K | 1201.1 ± 2.3 | 1198.3 ± 2.3 | 1194.4 ± 2.2 | 1189.3 ± 2.2 | 1177.8 ± 2.2 | 1147.9 ± 2.7 | 1100.7 ± 3.7
303.15 K | 1197.4 ± 2.3 | 1194.6 ± 2.3 | 1190.9 ± 2.2 | 1185.8 ± 2.2 | 1173.9 ± 2.3 | 1143.8 ± 2.7 | 1097.2 ± 3.7
333.15 K | 1175.4 ± 2.3 | 1172.8 ± 2.2 | 1169 ± 2.2 | 1163.9 ± 2.2 | 1151.5 ± 2.3 | 1121 ± 2.7 | 1076.4 ± 3.6
